Test results published in patent US20040019060A1, “Sigma receptor ligands and their medical uses” (priority 2000, published 2004).
Structures can show the parent of a compound that is named as a salt. Where two headings read alike, the source gives them in different places.

Experiments:
[1] = test system: Human mammary epithelial cells; assay: MTS cell viability/proliferation assay, mammary epithelial cells; type: cell-based; details: 10 micromolar, up to 48 hours, FIG. 9
Description: (Tissue in all cases was from healthy donors). […] Primary cell types included:
Human mammary epithelial cells (catalogue number CC-2551; stain positive for cytokeratins 14, 18 and 19).
Cell density was checked microscopically at time zero.

[2] = Pharmacokinetics in mice (LCMS of plasma, liver, spleen); type: in vivo, Balb/C mice
Procedure: Prior to undertaking any in vivo experiments with Rimcazole to study effects on tumour growth and angiogenesis, it was necessary to determine its pharmacokinetics in order that doses in the active range could be administered. Rimcazole (dissolved in water) was administered at 40 mg/kg i.p to Balb/C mice. Heparinised blood samples were taken at 5, 15 and 30 minutes, 1,2,4,6, and 24 hours and plasma separated. Tissue samples were also taken at some time points for analysis. Rimcazole samples were initially analysed by LCMS.
Column: Supelco 50×4.6 mm ABZ+ with 5 μ packing.
Mobile phase: A=HPLC grade methanol, B=0.1% formic acid in water.
Full scan mode: mass range analysed 50 to 850 amu.
MSMS mode: filtered ions were 322 (Rimcazole), 338 (Rimcazole+oxygen), and 514 (glucuronide of 338 metabolite).

[3] = test system: Human adult dermal microvascular endothelial cells; assay: MTS cell viability/proliferation assay, microvascular endothelial cells; details: Homo sapiens, Endothelial cell
sigma-1 sites = sigma-1 sites (Homo sapiens, UniProt Q99720); details: Abou-Gharbia et al 1993; cited from earlier work
[4] = test system: human microvascular endothelial cells (HMEC-1); assay: Proliferation assay in HMEC-1 (phosphatase activity); type: cell-based; details: 168 h, read-out: IC50 (dose required to inhibit proliferation to 50% of control), HMEC-1, FIG. 2a, assay on day 7
Procedure: HMEC-1 (immortalised human microvascular endothelial cells) obtained from Dr Colin Porter, Chester Beatty Laboratories were grown in TCS Biologicals Microvascular Endothelial Cell Basal Medium (ZHM-2946) with supplement (ZHS-8947). This contains heparin, hydrocortisone, human EGF, human bFGF, dibutyryl cyclic AMP (concentrations not disclosed by the Company) with added 5% FCS, pH 7.4.
(§1) The cells were seeded at 2×10^4 ml in 96 well microtitre plates on day 0, and sigma ligands were added in fresh medium on day 1. […] PCS at the concentrations indicated was present throughout the assay. Each concentration of drug was assayed in triplicate, and the vehicle concentration was kept constant.
(§2) Viable cells present at the end of the assay were estimated by determining phosphatase activity as follows: 100Xl of paranitrophenylphosphate (Sigma) at 3 mg/ml in phosphate buffer pH 5.5 containing 0.1% Triton X100 was added to wells and incubated for 2hr at 37° C. The reaction was stopped with 1N NaOH. Released paranitrophenol, indicative of attached cell number, was measured by reading the absorbance at 405 nm in a Titertek multiscan. “Background” counts (which were very low) were subtracted, and the survival in drug treated wells compared with that of control wells. The 100% value is the mean absorbance of control wells treated with vehicle alone; the 0% value is that of wells containing medium only.

[5] = test system: human vascular endothelial cells (HUVEC); assay: Proliferation assay in HUVEC (phosphatase activity); type: cell-based; details: 168 h, read-out: IC50 (dose required to inhibit proliferation to 50% of control), FIG. 2b, assay on day 7
Procedure: HUVECS (human umbilical vein endothelial cells) obtained from TCS Biologicals were grown in TCS Biologicals Large Vessel Endothelial Cell Basal Medium (ZHM-2951) with supplement (ZHS-8945). This contains heparin, hydrocortisone, human EGF, human bFGF (concentrations not disclosed by the Company) with added 2% FCS, pH 7.4.
as §1, §2

Chain of sigma-1 sites (Q99720 whole entry): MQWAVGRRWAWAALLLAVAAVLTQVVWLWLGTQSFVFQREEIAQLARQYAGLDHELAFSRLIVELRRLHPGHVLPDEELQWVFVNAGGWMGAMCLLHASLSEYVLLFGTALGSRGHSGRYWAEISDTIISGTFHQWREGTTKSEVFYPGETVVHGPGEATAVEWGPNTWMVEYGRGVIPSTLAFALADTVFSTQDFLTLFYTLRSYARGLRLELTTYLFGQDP

In the case of `C[C@@H]1CN(CCCn2c3ccccc3c3ccccc32)C[C@H](C)N1` [Rimcazole, cis-9-[3,5-dimethyl-1-piperazinyl) propyl]carbazole dihydrochloride], the “Survival and proliferation (MTS)” value [1] is reported as “continued to proliferate vigorously”, the “Tissue levels relative to plasma” value ([2]; Rimcazole 40 mg/kg i.p., mice, spleen and liver) is reported as “higher in spleen and liver than in plasma” and the “Plasma levels relative to IC50” value ([2]; once daily dosing at 40 mg/kg) is reported as “plasma levels above the IC50 for a significant period”. The cytotoxicity at 10 µM ([3]; read-out: Reduction in viability) was about 80%, the cytotoxicity at 10 µM ([3]; read-out: Reduction in viable cell numbers compared to baseline values) was 60 to 80% and the “selectivity for sigma-1 compared to sigma-2 sites” value (sigma-1 sites) was “approximately 5 fold”. The IC50 [4] was under 5 µM and the IC50 [5] was under 5 µM.
